Patent US10253080B2, “Glucagon-like-peptide-2 (GLP-2) analogues” (Zealand Pharma A/S, priority 2012, dated 2019)
Non-standard residues stand in square brackets, D forms with d. Residues, ends and D or L forms follow the SMILES beside them. Aib = CC(C)(N)C(=O)O

T1: human GLP-2 receptor (Homo sapiens, UniProt O95838, D470N)
T1 construct: host or cells: HEK293
T1 sequence (O95838 1-553 D470N): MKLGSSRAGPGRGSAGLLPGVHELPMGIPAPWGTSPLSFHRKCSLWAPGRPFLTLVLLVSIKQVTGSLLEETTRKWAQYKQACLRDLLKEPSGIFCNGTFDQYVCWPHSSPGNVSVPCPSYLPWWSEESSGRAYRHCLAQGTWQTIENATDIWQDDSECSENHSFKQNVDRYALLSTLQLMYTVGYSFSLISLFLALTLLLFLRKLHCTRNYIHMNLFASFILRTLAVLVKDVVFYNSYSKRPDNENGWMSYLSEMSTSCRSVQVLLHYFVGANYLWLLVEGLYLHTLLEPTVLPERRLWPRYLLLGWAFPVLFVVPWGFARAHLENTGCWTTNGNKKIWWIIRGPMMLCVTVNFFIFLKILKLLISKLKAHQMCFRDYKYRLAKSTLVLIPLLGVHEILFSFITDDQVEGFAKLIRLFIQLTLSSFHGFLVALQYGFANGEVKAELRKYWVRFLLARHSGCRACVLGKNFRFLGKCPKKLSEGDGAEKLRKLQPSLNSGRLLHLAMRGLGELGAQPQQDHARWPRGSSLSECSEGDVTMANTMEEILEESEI


Experiments:
human GLP-1 receptor = target: T2, human GLP-1 receptor (Homo sapiens, UniProt P43220); assay: GLP-1 receptor efficacy assay (cAMP AlphaScreen); type: cell-based; settings: HEK293 cells expressing human GLP-1R, cAMP response
T2 construct: expressed in transfected cells; host or cells: HEK293
Method: The 5′-end primers additionally encoded a near Kozak consensus sequence to ensure efficient translation. […] 48 hours after transfection, cells were seeded for limited dilution cloning and selected with 1 mg/ml G418 in the culture medium.
(§1) Data from test compounds eliciting an increase in the intracellular level of cAMP were normalized relative to the positive and negative control (vehicle) to calculate the EC50 and maximal response from the concentration response curve.

[1] = Oral glucose tolerance test (OGTT) in normal mice; type: in vivo, C57BL/6J male mice; settings: single SC dose 1 h before 2 g/kg oral glucose; vs vehicle; FIG. 2
Method: Normal chow-fed C57BL/6J male mice were used. The mice were kept in standard housing conditions (light-, temperature-, and humidity-controlled room (12:12 h light-dark cycle, with lights on at 06.00-18.00 h; 24° C.; 50% relative humidity)), and each dosing group consisted of 10 animals.
Prior to the oral glucose tolerance test (OGTT), animals were fasted for 5 h. One hour before glucose challenge (time t=−60 min) baseline blood glucose was measured. Immediately after the blood sample, the animals were dosed once subcutaneously with compound at the indicated amount or PBS (vehicle). One hour later at t=0 min, a 2 g/kg oral gavage of glucose (0.4 g/ml in water diluted from glucose SAD […]; dose volume 5 ml/kg) was given to the animals. After glucose administration, tail vein blood was drawn for glucose measurements at t=15, 30, 60, 120 min.

[2] = Effect on intestinal weight in normal rats; type: in vivo, Wistar male rats; settings: SC once daily for four days, weighed day 5; FIG. 3
Method: Normal chow-fed Wistar male rats were used. The rats were kept in standard housing conditions (light-, temperature-, and humidity-controlled room (12:12 h light-dark cycle, with lights on at 06.00-18.00 h; 24° C.; 50% relative humidity)), and each dosing group consisted of 6 animals. Rats were dosed once daily via the subcutaneous route, for four days with compound at the indicated amount or PBS (vehicle). On day five, rats were sacrificed and small intestinal weight wet measured.

[3] = Effect in diet-induced obese mice (intestinal mass, glucose homeostasis); type: in vivo, C57BL/6J male mice; settings: SC twice daily for 14 days
Method: Diet-induced obesity was generated by feeding C57BL/6J male mice with high fat diet (Research Diet 60% fat (D12492) Research Diet Inc., New Brunswick, USA). The mice were kept in standard housing conditions (light-, temperature-, and humidity-controlled room (12:12 h light-dark cycle, with lights on at 06.00-18.00 h; 24° C.; 50% relative humidity)).
The vehicle treated dosing group contained 8 animals and the compound 7 treated groups consisted of 12 animals/group. All animals were mock treated for 7 days (once daily, SC, 100 μl vehicle) to acclimatize the animals to handling and injections, followed by treatment (vehicle or compound 7) for 14 days (twice daily, SC, 5 ml/kg). Animals were fasted overnight (day 11-12) and blood was drawn for analysis of glucose and insulin. On day 14, animals were sacrificed and small and large intestines removed, washed and weighed.

human GLP-2 receptor = target: T1, human GLP-2 receptor; assay: GLP-2 receptor efficacy assay (cAMP AlphaScreen); type: cell-based; settings: HEK293 cells expressing hGLP-2 receptor, cAMP response; read-out: GLP-2R EC50
Method: Test compounds inducing an increase in the intracellular level of cAMP were tested in this assay, and the response normalized relative to a positive and negative control to calculate the EC50 and maximal response from the concentration response curve.
The hGLP2-R was purchased from MRC-geneservice, Babraham, Cambridge as an image clone: 5363415 (11924-117). For subcloning into an mammalian expression vector, primers for subcloning were obtained from DNA-Technology, Risskov, Denmark. The 5′ and 3′ primers used for the PCR reaction include terminal restriction sites for cloning and the context of the 5′ primer is modified to a Kozak consensus without changing the sequence of the product encoded by the ORF. A standard PCR reaction was run using image clone 5363415 (11924-117) as a template with the above mentioned primers and Polymerase Herculase II Fusion in a total vol, of 50 μl. The generated PCR product was purified using GFX PCR and Gel band purification kit, digested with restriction enzymes and cloned into the mammalian expression vector using Rapid DNA Ligation Kit. Ligation reaction was transformed to XL10 Gold Ultracompetent cells and colonies were picked for DNA production using Endofree Plasmid maxi kit. Subsequent sequence analysis was conducted by MWG Eurofins, Germany.
HEK293 cells were transfected using the Lipofectamine PLUS transfection method. The day before transfection, HEK293 cells were seeded in two T75 flasks at a density of 2×10^6 cells/T75 flask in cell culturing medium without antibiotics. On the day of transfection, cells were washed with 1×DPBS and medium was replaced with Optimem to a volume of 5 mL/T75 flask before addition of Lipofectamine-plasmid complexes were added gently and drop wise to the cells in T75 flasks and replaced with growth medium after 3 hours and again to growth medium supplemented with 500 μg/mL G418 after 24 hours. After 4 weeks in G418 selection, colonies were picked and tested in a functional assay. One colony was selected for use in compound profiling.
as §1

[4] = DPP IV degradation and renal clearance (Tavares et al. 2000); cited from earlier work
[5] = target: human GLP-2 receptor (hGLP2-R), splice variant rs17681684 (human, UniProt O95838); assay: cell-based or functional assay

T2 sequence (P43220 24-463): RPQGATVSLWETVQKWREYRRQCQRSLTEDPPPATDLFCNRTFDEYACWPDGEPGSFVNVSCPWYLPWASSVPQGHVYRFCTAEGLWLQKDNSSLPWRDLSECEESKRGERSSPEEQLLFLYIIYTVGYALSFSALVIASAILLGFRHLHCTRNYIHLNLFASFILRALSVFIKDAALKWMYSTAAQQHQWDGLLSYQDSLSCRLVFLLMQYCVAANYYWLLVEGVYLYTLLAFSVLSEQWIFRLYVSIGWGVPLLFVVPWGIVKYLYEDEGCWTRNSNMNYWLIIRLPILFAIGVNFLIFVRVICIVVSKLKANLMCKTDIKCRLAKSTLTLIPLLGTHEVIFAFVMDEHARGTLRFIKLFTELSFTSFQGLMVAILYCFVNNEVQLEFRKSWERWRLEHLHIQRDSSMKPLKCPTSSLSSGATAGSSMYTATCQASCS

| Molecule | EC50 (human GLP-1 receptor) [nM] | EC50 (human GLP-2 receptor) [nM] | further results |
| --- | --- | --- | --- |
| CC[C@H](C)[C@H](NC(=O)[C@H](Cc1ccccc1)NC(=O)[C@H](CC(=O)O)NC(=O)[C@H](CCCNC(=N)N)NC(=O)[C@H](C)NC(=O)[C@H](C)NC(=O)[C@H](CCCCN)NC(=O)CNC(=O)[C@H](CC(=O)O)NC(=O)[C@H](CC(C)C)NC(=O)[C@@H](NC(=O)[C@@H](NC(=O)[C@H](CC(N)=O)NC(=O)[C@H](CC(C)C)NC(=O)[C@H](CCC(=O)O)NC(=O)[C@H](CC(=O)O)NC(=O)[C@H](CO)NC(=O)[C@H](Cc1ccccc1)NC(=O)[C@H](CO)NC(=O)CNC(=O)[C@H](CC(=O)O)NC(=O)C(C)(C)NC(=O)[C@@H](N)Cc1c[nH]cn1)[C@@H](C)O)[C@@H](C)CC)C(=O)N[C@@H](CC(N)=O)C(=O)N[C@@H](Cc1c[nH]c2ccccc12)C(=O)N[C@@H](CC(C)C)C(=O)N[C@H](C(=O)N[C@@H](CCC(N)=O)C(=O)N[C@H](C(=O)N[C@@H](CCCCN)C(N)=O)[C@@H](C)O)[C@@H](C)CC [Compound 10] (H-H[Aib]DGSFSDELNTILDGKAARDFINWLIQTK-NH2) | 0.03 | – | – |
| CC[C@H](C)[C@H](NC(=O)[C@H](Cc1ccccc1)NC(=O)[C@H](CC(=O)O)NC(=O)[C@H](CCCNC(=N)N)NC(=O)[C@H](C)NC(=O)[C@H](C)NC(=O)[C@H](CC(C)C)NC(=O)[C@H](CC(N)=O)NC(=O)[C@H](CC(=O)O)NC(=O)[C@H](CC(C)C)NC(=O)[C@@H](NC(=O)[C@@H](NC(=O)[C@H](CC(N)=O)NC(=O)[C@H](CCSC)NC(=O)[C@H](CCC(=O)O)NC(=O)[C@H](CC(=O)O)NC(=O)[C@H](CO)NC(=O)[C@H](Cc1ccccc1)NC(=O)[C@H](CO)NC(=O)CNC(=O)[C@H](CC(=O)O)NC(=O)CNC(=O)[C@@H](N)Cc1c[nH]cn1)[C@@H](C)O)[C@@H](C)CC)C(=O)N[C@@H](CC(N)=O)C(=O)N[C@@H](Cc1c[nH]c2ccccc12)C(=O)N[C@@H](CC(C)C)C(=O)N[C@H](C(=O)N[C@@H](CCC(N)=O)C(=O)N[C@H](C(=O)N[C@@H](CCCCN)C(=O)N[C@H](C(=O)N[C@H](C(=O)N[C@@H](CC(=O)O)C(=O)O)[C@@H](C)O)[C@@H](C)CC)[C@@H](C)O)[C@@H](C)CC [GLP-2 (Gly2), reference compound] | > 200 | – | – |
| H-HGDGSFSDEMNTILDGQAARDFINWLIQTK-NH2 [Compound 3] | 9 | – | – |
| H-HGDGSFSDEMNTILDGQAARDFINWLIQTK-NH2 [Compound 12] | 0.07 | – | blood glucose response in OGTT [1]: significantly reduced the blood glucose response |
| H-HGDGSFSSELATILDGKAARDFINWLIQTKITD-OH [Compound 7] [listing 1 of 2 here] | 0.78 | – | small intestinal wet weight [2]: increased intestinal weight in a dose dependant manner; fasting blood glucose ([3]; overnight fast day 11-12, vs vehicle, FIG. 5A): reduced; fasting plasma insulin levels ([3]; overnight fast day 11-12, vs vehicle, FIG. 5B): reduced; small intestinal mass ([3]; vs vehicle, FIG. 4A): significantly increased; large intestinal mass ([3]; vs vehicle, FIG. 4B): significantly increased; HOMA-IR index ([3]; vs vehicle, FIG. 5C): lower HOMA-IR index than vehicle treated controls |
| H-HGDGSFSSELATILDGKAARDFINWLIQTKITD-OH [Compound 7] [listing 2 of 2 here] | – | 0.2 | – |
| H-HGDGSFSSELATILDGQAARDFIAWLIQTKITD-OH [Compound 11] [listing 1 of 2 here] | 0.34 | – | – |
| H-HGDGSFSSELATILDGQAARDFIAWLIQTKITD-OH [Compound 11] [listing 2 of 2 here] | – | 0.2 | – |
| H-HGDGSFSSEMNTILDSQAARDFINWLIQTKITD-OH [Compound 4] [listing 1 of 2 here] | 25 | – | – |
| H-HGDGSFSSEMNTILDSQAARDFINWLIQTKITD-OH [Compound 4] [listing 2 of 2 here] | – | 0.06 | – |
| H-HGEGSFSSDLSTILEGKAARDFIEWLIQTKITD-OH [Compound 13] [listing 1 of 2 here] | 18 | – | – |
| H-HGEGSFSSDLSTILEGKAARDFIEWLIQTKITD-OH [Compound 13] [listing 2 of 2 here] | – | 0.1 | – |
| H-HGEGSFSSDLSTILENKAARDFIEWLIQTKITD-OH [Compound 9] [listing 1 of 2 here] | 9.1 | – | – |
| H-HGEGSFSSDLSTILENKAARDFIEWLIQTKITD-OH [Compound 9] [listing 2 of 2 here] | – | 0.2 | – |
| H-HGEGTFTSDLSKQMEGQAVRDFIEWLIQTKITD-OH [Compound 5] [listing 1 of 2 here] | 1 | – | – |
| H-HGEGTFTSDLSKQMEGQAVRDFIEWLIQTKITD-OH [Compound 5] [listing 2 of 2 here] | – | 0.2 | – |
| H-HGEGTFTSDLSKQMESKAARDFIEWLIQTKITD-OH [Compound 6] | – | 0.2 | – |
| H-HGEGTFTSDLSTILENKAARDFIEWLIQTKITD-OH [Compound 8] [listing 1 of 2 here] | 16 | – | – |
| H-HGEGTFTSDLSTILENKAARDFIEWLIQTKITD-OH [Compound 8] [listing 2 of 2 here] | – | 0.008 | – |
| His-Ala-Asp-Gly-Ser-Phe-Ser-Asp-Glu-Met-Asn-Thr-Ile-Leu-Asp-Asn-Leu-Ala-Ala-Arg-Asp-Phe-Ile-Asn-Trp-Leu-Ile-Gln-Thr-Lys-Ile-Thr-Asp [GLP-2(1-33)] | – | – | half life [4]: about 7 minutes |
| HDEFERHAEGTFTSDVSSYLEGQAAKEFIAWLVKGRG [GLP-1] | – | – | GLP-2R EC50 (nM), cAMP AlphaScreen [5]: > 1000 nM |
